US8012929B2, “Peptides directed for diagnosis and treatment of amyloid-associated diseases” (Tel Aviv University Future Technology Development L.P., priority 2002, dated 2011)
Like-named read-outs stand apart in the source and are kept apart here. Square brackets hold non-standard residues; d marks the D form. Peptide text beside a SMILES is read from it. Aib = CC(C)(N)C(=O)O

What was measured:
[1] = tested on: hAPP(751) transgenic mice; conditions: mouse, in vivo, ip
Protocol: Experimental design—20 (+3 reserves) 4.5 month (±1 week) old male hAPP(751) transgenic mice were divided into 2 treatment groups, a control group—treated with vehicle and an experimental group—treated with D-Trp-Aib. Animals were treated for 120 days with 3 intraperitoneal (i.p.) injections of 1 mg per animal per day 7 of the original 20 animals died during the 4-month experimental period, 4 of them from the control group.

[2] = Serum stability, mouse serum (HPLC); assay type: in vitro ADME; conditions: 37° C., 2 and 5 hours
Text: D-Trp-Aib serum stability—Regardless of administration route, all drugs penetrate and distribute in the body via the blood system. This milieu is based not only on cells and buffering compounds, but also on proteins, carbohydrates, lipid-protein micelles, etc. Serum proteins mainly contain carrier proteins, such as albumin, but also contain many enzymes that might treat the drug as a substrate. Thus, the susceptibility of any drug entering this environment should be evaluated. The stability of D-Trp-Aib spiked into serum was evaluated by analysis of intact sample concentrations at different time points. D-Trp-Aib (250 μg/ml PBS) was incubated with mouse (Harlan Biotech, Israel) or human (obtained from Sheba medical center, Tel Hashomer, Israel) sera or PBS (1:1, 37° C.), and aliquots were analyzed by HPLC analysis at times 0, 2 and 5 hrs. The reaction was stopped and precipitation was effected by the addition of acetonitrile (Baker, Phillipsburg N.J.) and 10% TCA. Following centrifugation (10,000 g, 5 min), Supernatant was transferred to HPLC analysis. Mean amounts of D-Trp-Aib (μg)±s.e.m. were calculated by an internal calibration curve. […]

[3] = Membrane permeability in Caco-2 cell monolayer; assay type: in vitro ADME; conditions: human, apical to basolateral, read-out: recovery at the experimental end point
Protocol: Membrane permeability of D-Trp-Aib as studied in Caco-2 cells—The CaCo-2 system is based on the intestinal properties of the Caco-2 cells (ATCC Accession No. HTB-37), which preserved the polarity that is seen in the intestinal wall—an apical brush border that faces the intestinal lumen and a basolateral side that faces the body. After initial culturing (37° C. in an atmosphere of 5% CO2 and 100% humidity; medium: D-glucose DMEM supplemented with 1% Lglutamine, 1% nonessential amino acids, 1% sodium pyruvate, 1% penicillinstreptomycin, and 10% fetal bovine serum), cells were harvested and grown (14 days) on polycarbonate membranes, on which they formed a tight monolayer, (width of one cell, as in the intestine) allowing specific compounds to penetrate. […] D-Trp-Aib membrane permeability of the Caco-2 cell monolayer was assessed at concentrations of 0.2 mM and 1 mM, and compared to the standards propranolol (1 mM/apical buffer-see below) and ^3H-mannitol (5.26 Ci/mmole apical buffer—see below), known to pass via transcellular and paracellular routes, respectively. […] Substance samples and Propranolol standard were analyzed using HPLC. ^3H-Mannitol samples were subjected to analysis by liquid scintillation counting in a Packard TopCount NXT. […]

[4] = mouse, in vivo
Protocol: (§1) Animals were treated following a 4 hour fast, with water ad libitum, and fed 2 hours after administration. Thereafter, animals were sacrificed at different time intervals (5 minutes-8 hours; 3 animals in each group, at every time interval were sacrificed by sodium pentobarbital anesthesia followed by exanguination) and blood (plasma), brain, liver, kidney and pancreas were collected and later analyzed. Plasma and brain tissue samples were analyzed by high-performance liquid chromatography with tandem mass spectrometry (LC-MS/MS).
(§2) In case of brain tissue, only AUC0-4 was calculated. All parameters were calculated using the software PK solutions Version 2.0 for Noncompartmental Pharmacokinetics Data analysis (Summit Research Services, Montrose, Colo.).

in vivo = conditions: CD-1, mouse
Protocol: as §1, §2

[5] = inhaled or intranasal, 20 mg/kg

## CC(C)(NC(=O)[C@H](N)Cc1c[nH]c2ccccc12)C(=O)O [D-Trp-Aib] (H-[dW]-[Aib]-OH)
[1]
  long-term toxicity: no long-term toxicity
[2]
  D-Trp-Aib concentration after incubation in serum: No decrease
[3]; 0.2 mM
  recovery at 90 min: 37.9%
[3]; 1 mM
  recovery at 90 min, 1 mM: 19.3%
[4]
  detection in brain tissue (transport through the blood-brain barrier): detected in all the assayed brain tissue samples
  exposure of the brain, intranasal compared to oral administration: higher exposure of the brain
[4]; [5]
  Cl (area)/kg: 19.1947 mL/min/kg
  Vd (area)/kg: 2.14474 L/kg
[4]; iv, 50 mg/kg
  AUC (0-t) (obs area): 2173.55
  AUCextra: 0.11%
[4]; po
  earliest detection post-dosing (rapidly absorbed): 15 min
[4]; po, 50 mg/kg
  AUC (0-t) (obs area): 453.91
  AUCextra: 0.24%
  Cl (area)/kg: 20.4857 mL/min/kg
  Vd (area)/kg: 1.90581 L/kg
In vivo
  half-life: 1.1 to 1.2 h
In vivo; inhaled or intranasal
  bioavailability: 65.5%
In vivo; [5]
  AUC(0-inf): 11400 ng·h/mL
  AUC(0-t): 10600 ng·h/mL
  MRT: 0.98 h
  half-life: 1.29 h
In vivo; iv, 50 mg/kg
  AUC(0-inf): 40600 ng·h/mL
  AUC(0-t): 40600 ng·h/mL
  MRT: 0.44 h
  Vd: 2.16 L/kg
  bioavailability: 100%
  clearance: 20.5 mL/min/kg
  half-life: 1.22 h
In vivo; po, 50 mg/kg
  AUC(0-inf): 15700 ng·h/mL
  AUC(0-t): 15700 ng·h/mL
  Cmax: 9810 ng/mL
  MRT: 1.29 h
  Tmax: 1 h
  bioavailability: 38.7%
  half-life: 1.07 h
